{"source": "patent US20260217706A1", "about": "“HETEROCYCLIC COMPOUNDS, PREPARATION METHOD THEREFOR AND USE THEREOF” (GUANGZHOU YUFAN NANTU BIOTECHNOLOGIES CO., LTD, priority 2023, published 2026)", "key": {"CBL-B protein": {"target": "CBL-B protein (Homo sapiens, UniProt Q13191)", "sequence (Q13191 whole entry)": "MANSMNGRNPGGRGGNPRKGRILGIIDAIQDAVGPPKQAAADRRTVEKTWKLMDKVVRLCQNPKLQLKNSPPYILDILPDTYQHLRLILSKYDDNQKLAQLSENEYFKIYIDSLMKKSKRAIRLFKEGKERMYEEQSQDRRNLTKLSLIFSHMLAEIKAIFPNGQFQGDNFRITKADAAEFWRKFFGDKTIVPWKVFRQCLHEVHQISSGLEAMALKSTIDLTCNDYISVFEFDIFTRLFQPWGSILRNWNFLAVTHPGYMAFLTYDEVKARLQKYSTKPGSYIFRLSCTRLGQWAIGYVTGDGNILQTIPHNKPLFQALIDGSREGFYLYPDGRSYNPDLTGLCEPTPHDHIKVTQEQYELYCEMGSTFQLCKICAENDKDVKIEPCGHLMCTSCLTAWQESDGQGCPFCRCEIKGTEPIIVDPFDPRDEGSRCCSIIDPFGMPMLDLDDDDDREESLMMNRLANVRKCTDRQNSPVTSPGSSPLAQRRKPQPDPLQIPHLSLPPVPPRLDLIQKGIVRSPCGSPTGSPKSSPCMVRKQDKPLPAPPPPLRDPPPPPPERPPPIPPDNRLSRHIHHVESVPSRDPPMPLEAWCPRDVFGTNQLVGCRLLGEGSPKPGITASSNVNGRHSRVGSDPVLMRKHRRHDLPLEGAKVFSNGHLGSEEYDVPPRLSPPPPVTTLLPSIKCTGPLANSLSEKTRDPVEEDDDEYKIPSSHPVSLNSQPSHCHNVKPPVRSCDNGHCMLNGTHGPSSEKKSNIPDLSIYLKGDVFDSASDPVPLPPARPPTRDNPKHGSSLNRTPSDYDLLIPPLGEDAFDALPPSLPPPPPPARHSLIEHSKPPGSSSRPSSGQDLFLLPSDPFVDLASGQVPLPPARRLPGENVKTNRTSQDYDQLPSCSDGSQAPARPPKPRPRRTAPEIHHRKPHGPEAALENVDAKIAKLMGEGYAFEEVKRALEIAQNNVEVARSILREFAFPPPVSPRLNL", "assay": "CBL-B binding experiment (Streptavidin-Tb cryptate / Ligand L1 displacement)", "details": "8 nM CBL-B protein, 25° C., 60 minutes; Ki=Relative IC50/2", "method_in_brief": "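Compounds in a 10-point DMSO series met 8 nM CBL-B protein in HEPES pH 7.5/NaCl/Triton/TCEP/BSA buffer at 25° C. for 60 min. A further 60 min at room temperature preceded the luminescence read, normalised to no-protein and DMSO wells. Ki was taken as relative IC50 divided by 2.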"}, "[1]": {"system": "anti-CD3 activated human PBMCs", "assay": "Effect of compounds on the level of IL-2 secretion by anti-CD3 activated human PBMCs (IL-2 ELISA)", "assay_type": "cell-based", "details": "compound concentration at which fold change in IL-2 = 5; hPBMCs, CD3 antibody 2 μg/mL, 48 h, compound from 3 μM", "method": "2. Inoculate the resuspended cells into a 96-well cell culture plate at 200 ul/well of cell suspension, and incubate in a 37° C. cell incubator for 1 h;\n3. Adjust the compound concentration with DMSO, starting at a final concentration of 3 μM, and perform a 3-fold dilution sequentially for 10 concentration gradients, with an additional DMSO control well set up; and\n4. Adjust the CD3 antibody to an appropriate concentration to achieve a final concentration of 2 μg/mL, mix thoroughly, and incubate in a 37° C. cell incubator for 48h.\n5. After 48 h, centrifuge at 1500 rpm for 5 min to collect the supernatant of the culture medium for the human IL-2 ELISA test.\nThe OD values obtained from the ELISA test are converted into the fold change (FC) in IL-2 concentration. […] The EC50 is calculated using GraphPad Prism. When the fold change=5, the corresponding compound concentration is CFC=5 (in nM)."}}}
{"smiles": "Cn1cnnc1C1(c2cccc(-n3cc(C(F)(F)F)c4cc(CNCC(C)(C)C)[nH]c4c3=O)c2)CCC1", "note": "[Compound T162, 6-(3-(1-(4-methyl-4H-1,2,4-triazol-3-yl)cyclobutyl)phenyl)-2-((neopentylamino)methyl)-4-(trifluoromethyl)-1,6-di hydro-7H-pyrrolo[2,3-c]pyridin-7-one]", "values": [{"measurement": "Ki", "setting": "CBL-B protein", "value": "< 50", "unit": "nM"}, {"measurement": "IL-2 CFC=5/nM", "setting": "[1]", "value": "<500", "unit": "nM"}]}
{"smiles": "CO[C@H]1C[C@](c2cccc(-n3cc(C(F)(F)F)c4cc(CN5CCC[C@H]6C[C@H]65)[nH]c4c3=O)c2)(c2nncn2C)C1", "note": "[Compound T185]", "values": [{"measurement": "IL-2 CFC=5/nM", "setting": "[1]", "value": "<500", "unit": "nM"}]}
{"smiles": "Cn1cnnc1[C@]1(c2cccc(-n3cc(C(F)(F)F)c4cc(CN5C[C@@H]6CC[C@@H](C6)C5)[nH]c4c3=O)c2)C[C@H](C)C1", "note": "[Compound T087, 2-((3-azabicyclo[3.2.1]octan-3-yl)methyl)-6-(3-((1s,3s)-3-methyl-1-(4-methyl-4H-1,2,4-triazol-3-yl)cyclobutyl)phenyl)-4-(trifluoromethyl)-1,6-dihydro-7H-pyrrolo[2,3-c]pyridin-7-one]", "values": [{"measurement": "Ki", "setting": "CBL-B protein", "value": "< 50", "unit": "nM"}, {"measurement": "IL-2 CFC=5/nM", "setting": "[1]", "value": "<500", "unit": "nM"}]}
{"smiles": "Cn1cnnc1C1(c2cccc(-n3cc(C(F)(F)F)c4cc(CN5CC[C@H]6C[C@H]6C5)[nH]c4c3=O)c2)CCC1", "note": "[Compound T024, 2-[[(1R,6R)-3-azabicyclo[4.1.0]heptan-3-yl]methyl]-6-[3-[1-(4-methyl-1,2,4-triazol-3-yl)cyclobutyl]phenyl]-4-(trifluoromethyl)-1H-pyrrolo[2,3-c]pyridin-7-one]", "values": [{"measurement": "Ki", "setting": "CBL-B protein", "value": "< 50", "unit": "nM"}, {"measurement": "IL-2 CFC=5/nM", "setting": "[1]", "value": "<500", "unit": "nM"}]}
{"smiles": "CCCNCc1cc2c(C(F)(F)F)cn(-c3cccc(C4(c5nncn5C)CCC4)c3)c(=O)c2[nH]1", "note": "[Compound T160, 6-(3-(1-(4-methyl-4H-1,2,4-triazol-3-yl)cyclobutyl)phenyl)-2-((propylamino)methyl)-4-(trifluoromethyl)-1,6-dihydro-7H-pyrrolo[2,3-c]pyridin-7-one]", "values": [{"measurement": "Ki", "setting": "CBL-B protein", "value": "< 50", "unit": "nM"}, {"measurement": "IL-2 CFC=5/nM", "setting": "[1]", "value": "<500", "unit": "nM"}]}
{"smiles": "C[C@H]1CCCN(Cc2cc3c(C4CC4)cn(-c4cccc(C5(c6nncn6C)CC6(CC6)C5)c4)c(=O)c3[nH]2)C1", "note": "[Compound T030, 4-cyclopropyl-2-[[(3S)-3-methyl-1-piperidyl]methyl]-6-[3-[5-(4-methyl-1,2,4-triazol-3-yl)spiro[2.3]hexan-5-yl]phenyl]-1H-pyrrolo[2,3-c]pyridin-7-one]", "values": [{"measurement": "Ki", "setting": "CBL-B protein", "value": "< 50", "unit": "nM"}, {"measurement": "IL-2 CFC=5/nM", "setting": "[1]", "value": "<500", "unit": "nM"}]}
{"smiles": "CO[C@H]1C[C@](c2cccc(-n3cc(C(F)(F)F)c4cc(CN5CCCC(C(F)F)C5)[nH]c4c3=O)c2)(c2nncn2C)C1", "note": "(stereo partly drawn) [Compound T156, 2-((3-(difluoromethyl)piperidin-1-yl)methyl)-6-(3-((1r,3r)-3-methoxy-1-(4-methyl-4H-1,2,4-triazol-3-yl)cyclobutyl)phenyl)-4-(trifluoromethyl)-1,6-dihydro-7H-pyrrolo[2,3-c]pyridin-7-one]", "values": [{"measurement": "Ki", "setting": "CBL-B protein", "value": "< 50", "unit": "nM"}, {"measurement": "IL-2 CFC=5/nM", "setting": "[1]", "value": "<500", "unit": "nM"}]}
{"smiles": "Cn1cnnc1C1(c2cccc(-n3cc(C(F)(F)F)c4cc(CN5CCC6(CC6)C5)[nH]c4c3=O)c2)CCC1", "note": "[Compound T023, 2-(5-azaspiro[2.4]heptan-5-ylmethyl)-6-[3-[1-(4-methyl-1,2,4-triazol-3-yl)cyclobutyl]phenyl]-4-(trifluoromethyl)-1H-pyrrolo[2,3-c]pyridin-7-one]", "values": [{"measurement": "Ki", "setting": "CBL-B protein", "value": "< 50", "unit": "nM"}, {"measurement": "IL-2 CFC=5/nM", "setting": "[1]", "value": "<500", "unit": "nM"}]}
{"smiles": "CC[C@H]1C[C@](c2cccc(-n3cc(C(F)(F)F)c4cc(CN5CCC[C@H](C)C5)[nH]c4c3=O)c2)(c2nncn2C)C1", "note": "[Compound T093, 6-(3-((1s,3S)-3-ethyl-1-(4-methyl-4H-1,2,4-triazol-3-yl)cyclobutyl)phenyl)-2-(((S)-3-methylpiperidin-1-yl)methyl)-4-(trifluoromethyl)-1,6-dihydro-7H-pyrrolo[2,3-c]pyridin-7-one]", "values": [{"measurement": "Ki", "setting": "CBL-B protein", "value": "< 50", "unit": "nM"}, {"measurement": "IL-2 CFC=5/nM", "setting": "[1]", "value": "<500", "unit": "nM"}]}
{"smiles": "Cn1cnnc1[C@]1(c2cccc(-n3cc(C(F)(F)F)c4cc(CN5CC6CC6C5)[nH]c4c3=O)c2)C[C@H](C)C1", "note": "(stereo partly drawn) [Compound T028, 2-((3-azabicyclo[3.1.0]hexan-3-yl)methyl)-6-(3-((1s,3s)-3-methyl-1-(4-methyl-4H-1,2,4-triazol-3-yl)cyclobutyl)phenyl)-4-(trifluoromethyl)-1,6-dihydro-7H-pyrrolo[2,3-c]pyridin-7-one]", "values": [{"measurement": "Ki", "setting": "CBL-B protein", "value": "< 50", "unit": "nM"}, {"measurement": "IL-2 CFC=5/nM", "setting": "[1]", "value": "<500", "unit": "nM"}]}
{"smiles": "C[C@H]1CCCN(Cc2cc3c(C(F)(F)F)cn(-c4cccc(C5([C@@H](F)c6nncn6C)CC(F)(F)C5)c4)c(=O)c3[nH]2)C1", "note": "[Compound T119, 6-(3-(3,3-difluoro-1-((R)-fluoro(4-methyl-4H-1,2,4-triazol-3-yl)methyl)cyclobutyl)phenyl)-2-(((S)-3-methylpiperidin-1-yl)methyl)-4-(trifluoromethyl)-1,6-dihydro-7H-pyrrolo[2,3-c]pyridin-7-one]", "values": [{"measurement": "Ki", "setting": "CBL-B protein", "value": "< 50", "unit": "nM"}, {"measurement": "IL-2 CFC=5/nM", "setting": "[1]", "value": "<500", "unit": "nM"}]}
{"smiles": "C[C@H]1CCCN(Cc2cc3c(C4CC4)cn(-c4cccc([C@]5(c6nncn6C)C[C@H](C)C5)c4)c(=O)c3[nH]2)C1", "note": "[Compound T014, 4-cyclopropyl-6-(3-((1r,3S)-3-methyl-1-(4-methyl-4H-1,2,4-triazol-3-yl)cyclobutyl)phenyl)-2-(((S)-3-methylpiperidin-1-yl)methyl)-1,6-dihydro-7H-pyrrolo[2,3-c]pyridin-7-one]", "values": [{"measurement": "IL-2 CFC=5/nM", "setting": "[1]", "value": "<500", "unit": "nM"}]}
{"smiles": "C[C@H]1CCCN(Cc2cc3c(C(F)(F)F)cn(-c4cccc([C@]5(c6nncn6C)C[C@@H](C#N)C5)c4)c(=O)c3[nH]2)C1", "note": "[Compound T137, (1R,3s)-3-(4-methyl-4H-1,2,4-triazol-3-yl)-3-(3-(2-(((S)-3-methylpiperidin-1-yl)methyl)-7-oxo-4-(trifluoromethyl)-1,7-dihydro-6H-pyrrolo[2,3-c]pyridin-6-yl)phenyl)cyclobutane-1-carbonitrile]", "values": [{"measurement": "IL-2 CFC=5/nM", "setting": "[1]", "value": "<500", "unit": "nM"}]}
{"smiles": "CO[C@H]1C[C@@](c2cccc(-n3cc(C(F)(F)F)c4cc(CN5CCC[C@H]6C[C@H]65)[nH]c4c3=O)c2)(c2nncn2C)C1", "note": "[Compound T183]", "values": [{"measurement": "IL-2 CFC=5/nM", "setting": "[1]", "value": "<500", "unit": "nM"}]}
{"smiles": "Cn1cnnc1C1(c2cccc(-n3cc(C(F)(F)F)c4cc(CN5CC[C@H](F)C5)[nH]c4c3=O)c2)CCC1", "note": "[Compound T020, 2-[[(3S)-3-fluoropyrrolidin-1-yl]methyl]-6-[3-[1-(4-methyl-1,2,4-triazol-3-yl)cyclobutyl]phenyl]-4-(trifluoromethyl)-1H-pyrrolo[2,3-c]pyridin-7-one]", "values": [{"measurement": "IL-2 CFC=5/nM", "setting": "[1]", "value": "<500", "unit": "nM"}]}
{"smiles": "C[C@H]1CCCN(Cc2cc3c(C4CC4)cn(-c4cccc([C@]5(c6nncn6C)C[C@@H](C)C5)c4)c(=O)c3[nH]2)C1", "note": "[Compound T011, 4-cyclopropyl-6-(3-((1s,3R)-3-methyl-1-(4-methyl-4H-1,2,4-triazol-3-yl)cyclobutyl)phenyl)-2-(((S)-3-methylpiperidin-1-yl)methyl)-1,6-dihydro-7H-pyrrolo[2,3-c]pyridin-7-one]", "values": [{"measurement": "IL-2 CFC=5/nM", "setting": "[1]", "value": "<500", "unit": "nM"}]}
{"smiles": "C[C@H]1CCCN(Cc2cc3c(C(F)(F)F)cn(-c4cccc([C@]5(c6nncn6C)C[C@@H](CC#N)C5)c4)c(=O)c3[nH]2)C1", "note": "[Compound T139, 2-((1R,3s)-3-(4-methyl-4H-1,2,4-triazol-3-yl)-3-(3-(2-(((S)-3-methylpiperidin-1-yl)methyl)-7-oxo-4-(trifluoromethyl)-1,7-dihydro-6H-pyrrolo[2,3-c]pyridin-6-yl)phenyl)cyclobutyl)acetonitrile]", "values": [{"measurement": "IL-2 CFC=5/nM", "setting": "[1]", "value": "<500", "unit": "nM"}]}
{"smiles": "C[C@H]1CCCN(Cc2cc3c(C(F)(F)F)cn(-c4cccc([C@]5(c6nncn6C)C[C@H](C#N)C5)c4)c(=O)c3[nH]2)C1", "note": "[Compound T136, (1S,3r)-3-(4-methyl-4H-1,2,4-triazol-3-yl)-3-(3-(2-(((S)-3-methylpiperidin-1-yl)methyl)-7-oxo-4-(trifluoromethyl)-1,7-dihydro-6H-pyrrolo[2,3-c]pyridin-6-yl)phenyl)cyclobutane-1-carbonitrile]", "values": [{"measurement": "IL-2 CFC=5/nM", "setting": "[1]", "value": "<500", "unit": "nM"}]}
{"smiles": "Cn1cnnc1C1(c2cccc(-n3cc(C(F)(F)F)c4cc(CN5CC[C@@H](F)C5)[nH]c4c3=O)c2)CCC1", "note": "[Compound T021, 2-[[(3R)-3-fluoropyrrolidin-1-yl]methyl]-6-[3-[1-(4-methyl-1,2,4-triazol-3-yl)cyclobutyl]phenyl]-4-(trifluoromethyl)-1H-pyrrolo[2,3-c]pyridin-7-one]", "values": [{"measurement": "IL-2 CFC=5/nM", "setting": "[1]", "value": "<500", "unit": "nM"}]}
{"smiles": "Cn1cnnc1C1(c2cccc(-n3cc(C(F)(F)F)c4cc(CN5CC6CC5CC6(F)F)[nH]c4c3=O)c2)CCC1", "note": "(stereo not drawn) [Compound T105, 2-[(5,5-difluoro-2-azabicyclo[2.2.1]heptan-2-yl)methyl]-6-[3-[1-(4-methyl-1,2,4-triazol-3-yl)cyclobutyl]phenyl]-4-(trifluoromethyl)-1H-pyrrolo[2,3-c]pyridin-7-one]", "values": [{"measurement": "Ki", "setting": "CBL-B protein", "value": "< 50", "unit": "nM"}]}
